In publication PMC2074590 (British Journal of Cancer, 1996):
Like-named read-outs stand apart in the source and are kept apart here.

Test: Serum concentrations of ICI 182780 by radioimmunoassay (pharmacokinetics of monthly i.m. depot)
Format: in vivo, human
Details: for Cmax: human, serum
Experimental: Bridsh Journal of Cancer (1996) 74, 300-308 ? […] The agent was administered as a monthly depot intramuscular injection. […] The study was approved by the ethics committees of each clinical centre. Patients were eligible for the study if they were post- menopausal and age less than 81 years, with histologically verified breast cancer. […] Patients were excluded if they had serious intercurrent disease, a WHO performance status of greater than 2, and a life expectancy of less than 3 months or had received previous cytotoxic chemotherapy for advanced breast cancer. […] Patients 5-19 received 250 mg month-1 i.m. from the outset. […] Tumour response to therapy was evaluated according to UICC criteria (Hayward et al., 1977). To qualify for the 'no change' category, tumour growth had to stabilise for more than 6 months (Howell et al., 1988; Robertson et al., 1989). Body weight was recorded at each monthly review in the majority of patients. […] The procedure was applied after solid base clean up of a diethyl ether/hexane extract of serum. The study limit of quantification was 0.68 ng ml-'. […] Gonadotrophins follicle-stimulating hormone and lutenising hormone (FSH and LH) and SHBG were measured by RIA in the Regional Radioimmunoassay Laboratory of the University Hospital of South Manchester. Prolactin was measured by immunoradiometric assay using reagents supplied by Netria. Total cholesterol levels were determined enzymatically using a commercially available reagent (Diamed, Switzerland). Triglyceride levels were determined by the glyceryl phosphate oxidase-peroxidase-antiperox- idase method using a commercially available kit (Boehringer Mannheim, Germany). High-density lipoprotein (HDL) cholesterol levels were measured after pretreatment of the serum samples with buffered magnesium phosphotungstate, which selectively precipitates low-density lipoprotein (LDL) cholesterol, very low-density lipoprotein (VLDL) cholesterol and chylomicrons, leaving HDL cholesterol in the super- natant. Serum levels of LDL cholesterol were calculated using the Friedewald equation (Friedewald et al., 1972). Endometrial assessment Endometrial thickness was measured in transverse section by transabdominal ultrasound using a Siemens Sonoline SL2 with a 3.5 MHz sector probe. Baseline and repeat scans at 3-6 monthly intervals were performed in five patients. […] Pharmacokinectic data were analysed using para- metric statistics. Data relating to body weight, serum gonadotrophin, SHBG and lipid levels were analysed using non-parametric statistics. The null hypothesis was rejected at a probability level of P<0.05. […] However, samples were not available between day 2 and day 8.

[1] = 250 mg monthly i.m., first month
[2] = 250 mg monthly i.m., sixth month

AUC, first month [1]: 140.5 ng·days/mL | Mean end-of-month concentration, first month [1]: 3.1 ng/mL | AUC, sixth month [2]: 206.8 ng·days/mL | Mean end-of-month concentration, sixth month [2]: 5.6 ng/mL | Difference in Cmax and AUC, partial response vs no change patients (after 6 months of treatment): no significant difference | Increase in AUC (after 6 months vs month 1): 50% | Increase in mean end of month drug levels (after 6 months vs month 1): 80% | Cmax (female, im, 250 mg, 250 mg monthly i.m., first month, read-out: Cmax, first month (mean)): 10.5 ng/mL | Cmax (female, im, 250 mg, 250 mg monthly i.m., sixth month, read-out: Cmax, sixth month (mean)): 12.6 ng/mL | Cmax (female, intramuscular, no change patients, read-out: Median Cmax at month 6): 12.8 ng/mL | Cmax (female, intramuscular, no change patients, read-out: Median Cmax on entry): 9.3 ng/mL | Cmax (female, intramuscular, partial response patients, read-out: Median Cmax at month 6): 11 ng/mL | Cmax (female, intramuscular, partial response patients, read-out: Median Cmax on entry): 7.7 ng/mL | Cmax (female, intramuscular, progressive disease patients, read-out: Median Cmax on entry): 5.6 ng/mL | Release of drug from slow release formulation (following both the 100 mg and 250 mg doses): continuous release of drug | Cmax (intramuscular, 100 mg, patient 1 (progressive disease), 100 mg dose at entry, read-out: Cmax on entry): 4.4 ng/mL | Cmax (intramuscular, 100 mg, patient 2 (no change), 100 mg dose at entry, read-out: Cmax on entry): 1.8 ng/mL | Cmax (intramuscular, 100 mg, patient 3 (partial response), 100 mg dose at entry, read-out: Cmax on entry): 2.9 ng/mL | Cmax (intramuscular, 100 mg, patient 4 (progressive disease), 100 mg dose at entry, read-out: Cmax on entry): 1.6 ng/mL | Cmax (intramuscular, 250 mg, patient 2 (no change), 250 mg, read-out: Cmax at month 6): 7.5 ng/mL | Cmax (intramuscular, 250 mg, patient 3 (partial response), 250 mg, read-out: Cmax at month 6): 9.9 ng/mL | Cmax (intramuscular, 250 mg, patient 5 (partial response), 250 mg, read-out: Cmax at month 6): 17.6 ng/mL | Cmax (intramuscular, 250 mg, patient 5 (partial response), 250 mg, read-out: Cmax on entry): 17.4 ng/mL | Cmax (intramuscular, 250 mg, patient 6 (partial response), 250 mg, read-out: Cmax on entry): 7.7 ng/mL | Cmax (intramuscular, 250 mg, patient 7 (progressive disease), 250 mg, read-out: Cmax on entry): 5.5 ng/mL | Cmax (intramuscular, 250 mg, patient 8 (partial response), 250 mg, read-out: Cmax at month 6): 10 ng/mL | Cmax (intramuscular, 250 mg, patient 8 (partial response), 250 mg, read-out: Cmax on entry): 5.9 ng/mL | Cmax (intramuscular, 250 mg, patient 9 (progressive disease), 250 mg, read-out: Cmax on entry): 9.7 ng/mL | Cmax (intramuscular, 250 mg, patient 10 (partial response), 250 mg, read-out: Cmax at month 6): 9.1 ng/mL | Cmax (intramuscular, 250 mg, patient 10 (partial response), 250 mg, read-out: Cmax on entry): 14.8 ng/mL | Cmax (intramuscular, 250 mg, patient 11 (progressive disease), 250 mg, read-out: Cmax on entry): 29.9 ng/mL | Cmax (intramuscular, 250 mg, patient 12 (no change), 250 mg, read-out: Cmax at month 6): 12.2 ng/mL | Cmax (intramuscular, 250 mg, patient 12 (no change), 250 mg, read-out: Cmax on entry): 7.2 ng/mL | Cmax (intramuscular, 250 mg, patient 13 (progressive disease), 250 mg, read-out: Cmax at month 6): 15.8 ng/mL | Cmax (intramuscular, 250 mg, patient 13 (progressive disease), 250 mg, read-out: Cmax on entry): 5.6 ng/mL | Cmax (intramuscular, 250 mg, patient 14 (partial response), 250 mg, read-out: Cmax at month 6): 13.5 ng/mL | Cmax (intramuscular, 250 mg, patient 14 (partial response), 250 mg, read-out: Cmax on entry): 9.1 ng/mL | Cmax (intramuscular, 250 mg, patient 15 (no change), 250 mg, read-out: Cmax at month 6): 15.8 ng/mL | Cmax (intramuscular, 250 mg, patient 15 (no change), 250 mg, read-out: Cmax on entry): 9 ng/mL | Cmax (intramuscular, 250 mg, patient 16 (partial response), 250 mg, read-out: Cmax at month 6): 12 ng/mL | Cmax (intramuscular, 250 mg, patient 16 (partial response), 250 mg, read-out: Cmax on entry): 4.4 ng/mL | Cmax (intramuscular, 250 mg, patient 17 (no change), 250 mg, read-out: Cmax at month 6): 14.9 ng/mL | Cmax (intramuscular, 250 mg, patient 17 (no change), 250 mg, read-out: Cmax on entry): 9.5 ng/mL | Cmax (intramuscular, 250 mg, patient 18 (no change), 250 mg, read-out: Cmax at month 6): 10.2 ng/mL | Cmax (intramuscular, 250 mg, patient 18 (no change), 250 mg, read-out: Cmax on entry): 10.3 ng/mL | Cmax (intramuscular, 250 mg, patient 19 (no change), 250 mg, read-out: Cmax at month 6): 17.2 ng/mL
Compound: C[C@]12CC[C@@H]3c4ccc(O)cc4C[C@@H](CCCCCCCCC[S+]([O-])CCCC(F)(F)C(F)(F)F)[C@H]3[C@@H]1CC[C@@H]2O (stereo partly shown) [ICI 182780, 7a-[9(4,4,5,5,pentafluoropentyl-sulphinyl)nonyl]oestra-1 ,3,5,(10)-triene-3,17,B-diol]
